Reference: patent publication US12240840B2, “Amide-substituted heterocyclic compounds for the treatment of conditions related to the modulation of IL-12, IL-23 and/or IFN-alpha” (BRISTOL-MYERS SQUIBB COMPANY, priority 2018, dated 2025)

tested on: IFNα-induced pSTAT5 (pY694) in CD3 positive cells of human whole blood; assay: IFNα-Induced STAT Phosphorylation in Human Whole Blood; assay type: cell-based; conditions: Homo sapiens, 1 h compound incubation, 1000 U/mL recombinant human IFNα A/D for 15 min, pSTAT5 in CD3 positive population, read-out: Human WB IFNα-Induced Stat Phosph. (IC50)
Summary of the method: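 Read-out is median fluorescence intensity of pSTAT5 (pY694) in the CD3-positive gate, by flow cytometry after fix/lyse and permeabilization. Before that, whole human blood anticoagulated with EDTA or ACD-A received compound for an hour and 1000 U/mL IFNα A/D for 15 min.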

IC50 | SMILES
1760 nM | [2H]C([2H])([2H])NC(=O)c1nnc(NC(=O)C2CC2)cc1Nc1cccc(-c2nc(CNC(=O)CN3CCN(S(C)(=O)=O)CC3)no2)c1OC [Example 163]
300 nM | [2H]C([2H])([2H])NC(=O)c1cnc(NC(=O)C2CC2)cc1Nc1cccc(-c2cnn(CCNS(C)(=O)=O)n2)c1OC [Example 436]
360 nM | [2H]C([2H])([2H])NC(=O)c1nnc(NC(=O)C2CC2)cc1Nc1cccc(-c2ncc(NC(=O)COC)s2)c1OC [Example 283]
110 nM | [2H]C([2H])([2H])NC(=O)c1nnc(NC(=O)C2CC2)cc1Nc1cccc(-c2ncc(C(=O)N(C)CC)s2)c1OC [Example 291]
150 nM | [2H]C([2H])([2H])NC(=O)c1nnc(NC(=O)C2CC2)cc1Nc1cccc(-c2cc(C(=O)N3CCCC3)n(C)n2)c1OC [Example 482]
210 nM | [2H]C([2H])([2H])NC(=O)c1nnc(NC(=O)C2CC2)cc1Nc1cccc(-c2nc(CNS(C)(=O)=O)no2)c1OC [Example 146]
190 nM | [2H]C([2H])([2H])NC(=O)c1cnc(Nc2cc(C(C)(C)O)ccn2)cc1Nc1cc(F)cc(-c2cnn(C)n2)c1OC [Example 454]
100 nM | COc1c(Nc2cc(NC(=O)C3CC3)nnc2C(N)=O)cccc1-c1ncc(C(=O)NCCC2CCCN2C)s1 (stereo not drawn) [Example 247]
270 nM | [2H]C([2H])([2H])NC(=O)c1nnc(NC(=O)C2CC2)cc1Nc1cccc(-c2nc(C)c(C(=O)NCC)s2)c1OC [Example 360]
250 nM | [2H]C([2H])([2H])NC(=O)c1nnc(NC(=O)C2CC2)cc1Nc1cccc(-c2cc(C(=O)N3CCN(C(=O)OC)CC3)n(C)n2)c1OC [Example 494]
150 nM | [2H]C([2H])([2H])NC(=O)c1cnc(NC(=O)C2CC2)cc1Nc1cccc(-c2nc(CN3CCCC3)no2)c1OC [Example 215]
390 nM | [2H]C([2H])([2H])NC(=O)c1nnc(NC(=O)C2CC2)cc1Nc1cccc(-c2cc(C(=O)N(C)CCOC)n(C)n2)c1OC [Example 481]
530 nM | [2H]C([2H])([2H])NC(=O)c1cnc(NC(=O)C2CC2)cc1Nc1cccc(-c2cc(C(=O)N3CCS(=O)(=O)CC3)n(C)n2)c1OC [Example 488]
1300 nM | [2H]C([2H])([2H])NC(=O)c1nnc(NC(=O)C2CC2)cc1Nc1cccc(-c2cnn(CCNC(=O)CO)c2)c1OC [Example 558]
170 nM | [2H]C([2H])([2H])NC(=O)c1nnc(NC(=O)C2CC2)cc1Nc1cccc(-c2noc(C(CCC)C(=O)NCCOC)n2)c1OC (stereo not drawn) [Example 43]
440 nM | [2H]C([2H])([2H])NC(=O)c1nnc(NC(=O)C2CC2)cc1Nc1cccc(-c2nc(CN3CCC(C)CC3)no2)c1OC [Example 211]
110 nM | [2H]C([2H])([2H])NC(=O)c1nnc(NC(=O)C2CC2)cc1Nc1cccc(-c2noc(CN3CC(O)C3)n2)c1OC [Example 80]
60 nM | [2H]C([2H])([2H])NC(=O)c1nnc(NC(=O)C2CC2)cc1Nc1cccc(-c2cc(C(=O)N3CCN(CCO)CC3)n(C)n2)c1OC [Example 476]
2730 nM | [2H]C([2H])([2H])NC(=O)c1nnc(NC(=O)C2CC2)cc1Nc1cccc(-c2nc(CNC(=O)CN3CCNCC3)no2)c1OC [Example 162]
200 nM | COc1c(Nc2cc(NC(=O)C3CC3)nnc2C(N)=O)cccc1-c1ncc(C(=O)N2CCC(O)CC2)o1 [Example 419]
80 nM | [2H]C([2H])([2H])NC(=O)c1nnc(NC(=O)C2CC2)cc1Nc1cccc(-c2cc(C(=O)N3CCOCC3)n(C)n2)c1OC [Example 459]
80 nM | COc1c(Nc2cc(NC(=O)C3CC3)nnc2C(N)=O)cccc1-c1ncc(CN2CCN(S(C)(=O)=O)CC2)s1 [Example 395]
30 nM | [2H]C([2H])([2H])NC(=O)c1cnc(NC(=O)C2CC2)cc1Nc1cccc(-c2noc(CN3CCN(C(=O)OC)CC3)n2)c1OC [Example 92]
6200 nM | [2H]C([2H])([2H])NC(=O)c1nnc(NC(=O)C2CC2)cc1Nc1cccc(-c2nc([C@H](COC(C)(C)C)NC(=O)OC(C)(C)C)no2)c1OC [Example 197]
80 nM | [2H]C([2H])([2H])NC(=O)c1nnc(NC(=O)C2CC2)cc1Nc1cccc(-c2noc(COC)n2)c1OC [Example 72]
> 10000 nM | COc1c(Nc2cc(NCC3CC3)nnc2C(N)=O)cccc1-c1noc(CNS(C)(=O)=O)n1 [Example 119]
11 nM | [2H]C([2H])([2H])NC(=O)c1nnc(NC(=O)C2CC2)cc1Nc1cccc(-c2noc(CN3CCCCS3(=O)=O)n2)c1OC [Example 12]
40 nM | [2H]C([2H])([2H])NC(=O)c1nnc(Nc2ccc(C)nn2)cc1Nc1cc(F)cc(-c2cc(C(=O)N(C)C)n(C)n2)c1OC [Example 555]

IC50 | SMILES
60 nM | [2H]C([2H])([2H])NC(=O)c1cnc(NC(=O)C2CC2)cc1Nc1cccc(-c2cc(C(=O)N(C)C)n(C)n2)c1OC [Example 486]
110 nM | [2H]C([2H])([2H])NC(=O)c1nnc(NC(=O)C2CC2)cc1Nc1cccc(-c2noc(CN)n2)c1OC [Example 6, 4-((3-(5-(aminomethyl)-1,2,4-oxadiazol-3-yl)-2-methoxyphenyl)amino)-6-(cyclopropanecarboxamido)-N-trideuteromethylpyridazine-3-carboxamide]
90 nM | COc1c(Nc2cc(NC(=O)C3CC3)nnc2C(N)=O)cccc1-c1noc([C@@H](C)N(C)S(C)(=O)=O)n1 [Example 52]
150 nM | [2H]C([2H])([2H])NC(=O)c1cnc(Nc2ccc(OC)nn2)cc1Nc1cc(F)cc(-c2cnn(C)n2)c1OC [Example 452]
170 nM | [2H]C([2H])([2H])NC(=O)c1nnc(NC(=O)C2CC2)cc1Nc1cccc(-c2noc(C3(O)CC3)n2)c1OC [Example 74]
110 nM | [2H]C([2H])([2H])NC(=O)c1nnc(Nc2cc(C)n(C)n2)cc1Nc1cc(F)cc(-c2cc(C(C)(C)O)n(C)n2)c1OC [Example 546]
270 nM | [2H]C([2H])([2H])NC(=O)c1nnc(Nc2ccc(OC)nn2)cc1Nc1cccc(-c2ncc(CNC(C)=O)s2)c1OC [Example 387]
100 nM | [2H]C([2H])([2H])NC(=O)c1nnc(NC(=O)C2CC2)cc1Nc1cccc(-c2ncc(C(=O)NCCC(=O)OC)s2)c1OC [Example 290]
460 nM | [2H]C([2H])([2H])NC(=O)c1cnc(NC(=O)CC)cc1Nc1cccc(-c2noc(COCC)n2)c1OC [Example 87]
150 nM | [2H]C([2H])([2H])c1c(NC(=O)C2CC2)nnc(C(N)=O)c1Nc1cccc(-c2nc(CN3CCN(C(C)=O)CC3)no2)c1OC [Example 120, 4-((3-(3-((4-acetylpiperazin-1-yl)methyl)-1,2,4-oxadiazol-5-yl)-2-methoxyphenyl)amino)-6-(cyclopropanecarboxamido)-trideuteromethylpyridazine-3-carboxamide]
50 nM | [2H]C([2H])([2H])NC(=O)c1nnc(NC(=O)C2CC2)cc1Nc1cccc(-c2ncc(C(=O)NCCCN(CC)CC)s2)c1OC [Example 335]
270 nM | [2H]C([2H])([2H])NC(=O)c1cnc(NC(=O)C2CC2)cc1Nc1cccc(-c2cnn(CCNC(=O)C(C)(C)O)n2)c1OC [Example 443]
70 nM | [2H]C([2H])([2H])NC(=O)c1nnc(NC(=O)C2CC2)cc1Nc1cccc(-c2ncc(C(=O)N3CCS(=O)(=O)CC3)s2)c1OC [Example 273]
170 nM | [2H]C([2H])([2H])NC(=O)c1nnc(NC(=O)C2CC2)cc1Nc1cc(F)cc(-c2cc(C(=O)N3CCC(CCO)CC3)n(C)n2)c1OC [Example 509]
13 nM | CCN(Cc1nc(-c2cccc(Nc3cc(NC(=O)C4CC4)nnc3C(N)=O)c2OC)no1)S(C)(=O)=O [Example 59]
4440 nM | [2H]C([2H])([2H])NC(=O)c1cnc(NC(=O)C2CC2)cc1Nc1cccc(-c2nc(C3(NC(=O)OC(C)(C)C)CC3)no2)c1OC [Example 213]
860 nM | [2H]C([2H])([2H])NC(=O)c1nnc(NC(=O)C2CC2)cc1Nc1cc(F)cc(-c2cc(C(=O)N3CCS(=O)(=O)CC3)n(C)n2)c1OC [Example 503]
30 nM | [2H]C([2H])([2H])NC(=O)c1nnc(NC(=O)C2CC2)cc1Nc1cccc(-c2ncc(C(=O)NCCCN(C)C)s2)c1OC [Example 317]
100 nM | [2H]C([2H])([2H])NC(=O)c1nnc(NC(=O)C2CC2)cc1Nc1cccc(-c2ncc(C(=O)NC(C)C)s2)c1OC [Example 303]
30 nM | COc1c(Nc2cc(NC(=O)C3CC3)nnc2C(N)=O)cccc1-c1ncc(C(=O)N2CCC(CCO)CC2)s1 [Example 400]
1680 nM | [2H]C([2H])([2H])NC(=O)c1nnc(NC(=O)C2CC2)cc1Nc1cccc(-c2cc(C(=O)NC(CO)CO)n(C)n2)c1OC [Example 523]
1950 nM | [2H]C([2H])([2H])NC(=O)c1nnc(NC(=O)C2CC2)cc1Nc1cccc(-c2nc(C3(NC(=O)COC)CC3)no2)c1OC [Example 149]
80 nM | [2H]C([2H])([2H])NC(=O)c1cnc(NC(=O)C2CC2)cc1Nc1cccc(-c2cnn(CCN)n2)c1OC [Example 442]
950 nM | [2H]C([2H])([2H])NC(=O)c1nnc(NC(=O)C2CC2)cc1Nc1cccc(-c2cc(C(=O)NCCCOC)n(C)n2)c1OC [Example 527]
220 nM | COc1c(Nc2cc(NC(=O)C3CC3)nnc2C(N)=O)cccc1-c1ncc(C(=O)NCC(O)CO)o1 (stereo not drawn) [Example 420]
720 nM | [2H]C([2H])([2H])NC(=O)c1nnc(NC(=O)C2CC2)cc1Nc1cccc(-c2cnn(CCN)c2)c1OC [Example 557]
1080 nM | [2H]C([2H])([2H])NC(=O)c1nnc(NC(=O)C2CC2)cc1Nc1cccc(-c2nc([C@H](CO)NC(C)=O)no2)c1OC [Example 199]

SMILES | IC50
[2H]C([2H])([2H])NC(=O)c1nnc(NC(=O)C2CC2)cc1Nc1cccc(-c2ncc(C(=O)N3C4CCC3CN(C)C4)s2)c1OC [Example 288] | 90 nM
[2H]C([2H])([2H])NC(=O)c1nnc(NC(=O)C2CC2)cc1Nc1cccc(-c2ncc(C(=O)N3[C@@H]4CC[C@H]3CC(N(C)C)C4)s2)c1OC (stereo partly drawn) [Example 344] | 30 nM
